This note sets out measurements from patent publication US8518895B2, “Method for treating hyponatremia employing an SGLT2 inhibitor and composition containing same” (Bristol-Myers Squibb Company, priority 2008, dated 2013).

The test system of series [1] is Healthy Normal Volunteers. Put plainly: Urinary glucose excretion over 24 hr in healthy normal volunteers after SGLT2 inhibitors. Type of series: in vivo, human.
Series [2] relates to diabetic patients. In words: 12-week treatment of diabetic patients: urine glucose, HbA1C, urine volume (Table 5).
Series [3] concerns type 2 diabetic patients. From the text: C-aryl glucoside SGLT2 inhibitors are known to reduce blood glucose levels in diabetic patients, see U.S. Pat. No. 6,774,112, which is incorporated herein by reference in its entirety, but not known to increase urine volume. […] Metformin reduces plasma glucose concentration by non-renal mechanisms and is not known to induce glucosuria. […] On day 1 and day 14, the patients were examined for the levels of glucosuria and changes in urine volumes.

The subject of series [4] is patients with diabetes. The settings on record: patients with diabetes, 5, 25 or 100 mg, FIG. 2.
Excerpt: The levels of urine glucose of all subjects are shown in the plot and the mean urine glucose is in the darker lines.
Where [5] appears, read: diabetic patients, 2.5-50 mg, after 12 weeks of treatment.

As to `COc1ccc(Cc2sccc2O[C@@H]2O[C@H](CO)[C@@H](O)[C@H](O)[C@H]2O)cc1` [AVE 2268], the figures for the “Glucose Output over 24 hr” value in series [1] (dose 1200 mg) and in series [1] (dose 2000 mg) were 14 g and 21 g, respectively.

On to `CCOc1ccc(Cc2cc([C@@H]3O[C@H](CO)[C@@H](O)[C@H](O)[C@H]3O)ccc2Cl)cc1` [Dapagliflozin, dapagliflozin], for which the “Glucose Output over 24 hr” value is listed as roughly 32 g in series [1] (dose 5 mg) and roughly 64 g in series [1] (dose 20 mg).

As to `CN(C)C(=N)N=C(N)N` [Metformin, metformin, reference compound], the “Urine Output (mL), change from baseline at week 12” value (“Urine Output (mL), change” for short) in series [2] (Metformin group, N = 56, mean ± standard deviation) was -95.84 ± 775.41 mL. Also, the HbA1C levels in series [2] (patients treated with 1500 mg metformin) is reported as 0.73%.

For the molecule `CCOc1ccc(Cc2cc([C@@H]3O[C@H](CO)[C@@H](O)[C@H](O)[C@H]3O)ccc2Cl)cc1` [dapagliflozin PGS], in series [3] (two-week period), the “fasting serum glucose (FSG) levels” value is reported as “Dose-dependent reduction”, the “postprandial glucose levels in oral glucose tolerance tests (OGTT)” value is “reduced” and the urine volumes entry is recorded as “no increase”. In addition, in series [3] (versus placebo, FIG. 3), the “urinary glucose levels within a 24-hour time period” value is listed as “increased”. The “urine glucose excretion compared to placebo” value in series [4] is recorded as “higher levels of urine glucose excretion”. For the same molecule, in series [2] (2.5 mg, n = 59, mean ± standard deviation), the “Urine Output (mL), change” value is recorded as 106.62 ± 606.88 mL. The “Urine Output (mL), change” value in series [2] (5 mg, n = 58, mean ± standard deviation) was 339.96 ± 551.34 mL. Further, the “Urine Output (mL), change” value in series [2] (10 mg, n = 47, mean ± standard deviation) came to 374.49 ± 741.62 mL. In addition, in series [2] (20 mg, n = 59, mean ± standard deviation), the “Urine Output (mL), change” value is 374.91 ± 723.13 mL. Besides, the “Urine Output (mL), change” value in series [2] (50 mg, n = 56, mean ± standard deviation) was 470.26 ± 797.51 mL. Further, the “increase in urine volume” value in series [2] (diabetic patients treated for 12 weeks) is 5-20%. In series [2] (setting [5]), the OGT result was “improved”, the “glucose excreted in urine every day” value fell in the range of 50 to 60 g and the “reduced HbA1C levels” value is recorded as 0.71-0.9%. The Side effects entry in series [2] (observed in some individuals, 12 weeks) was “urinary tract infection, dizziness, or vaginal infection”.
